Patent US20260248771A1, “VALBENAZINE, A VMAT2 INHIBITOR, AS A FREE BASE A TOSYLATE OR DITOSYLATE SALT, FOR USE IN THE TREATMENT OF CHOREA ASSOCIATED WITH HUNTINGTON'S DISEASE” (Neurocrine Biosciences, Inc., priority 2022, published 2026)

How the values were obtained:
Type in all cases: in vivo, human
subjects with HD [1] = experiment: Phase 3 study: EuroQol 5 Dimensions 5 Levels (EQ-5D-5L)
Excerpt: Exploratory endpoints included: • Wearable movement sensors (in select sites; optional participation) using MC10 Inc., BIOSTAMP® NPOINT® system • Huntington Disease Health Index • Changes from the screening period baseline to each postbaseline study visit (Weeks 2 through 12) in the TMC based on site assessments • Changes from the screening period baseline to maintenance (the average of the Week 10 and Week 12 assessments) in the TMC based on video recording central rater assessments • CGI-C response at Weeks 2 through 10 • PGI-C response at Weeks 2 through 10 • The change from baseline to Weeks 4, 8, and 10 in the Neuro-QoL Upper Extremity Function T-score. • The change from baseline to Weeks 4, 8, and 10 in the Neuro-QoL Lower Extremity Function T-score • CGI-S at Weeks 2 through 12 • PGI-S at Weeks 2 through 12 • SF-36 at Week 12 • HD-HI at Week 10 and Week 12 • EQ-5D-5L at Week 10 and Week 12 • UHDRS scores for motor, behavior, and functional capacity assessment at Weeks 2 through 12 • Other UHDRS scores including functional assessment and independence scale at Week 12 • AS at Week 12 • Change from screening period in physical activity by movement sensors at the Week 10 visit period […]

subjects with HD [2] = experiment: Phase 3 study: safety and tolerability (adverse events)
Procedure: (§1) A Phase 3, randomized, double-blind, placebo-controlled study to evaluate the efficacy, safety, and tolerability of once-daily valbenazine in subjects with HD was conducted. The study included a 4-week screening period, an 8-week dose-adjustment period, a 4-week maintenance period, and a final study visit 2 weeks following the final dose of study drug.
During the dose-adjustment and maintenance periods, the investigator could assess that a dose level is not tolerated if a subject experienced an adverse event (AE) that is (1) deemed associated with the study drug, and (2) of either moderate or severe intensity, or a serious AE.

subjects with HD [3] = experiment: Phase 3 placebo-controlled study: UHDRS total maximal chorea (TMC) score; conditions: for TMC score LS mean difference between treatment groups (valbenazine minus placebo): change from screening period baseline
Excerpt: As used herein, “Unified Huntington Disease Rating Scale” or “UHDRS” is the standard clinical assessment tool in Huntington disease. The UHDRS is divided into four domains: motor performance, cognitive function, behavioral abnormalities, and functional abilities. The motor section consists of 31 items assessing oculomotor, bradykinesia/rigidity, dystonia, chorea, and gait/balance. The items are rated from zero to four, with zero indicating normal findings and four indicating severe abnormalities. The range of the Total Motor Score (TMS) is 0 to 124, with higher scores indicating more severe motor impairment. The cognitive component includes the verbal fluency test, the symbol digit modalities test, and the Stroop test (color naming, word reading, and interference). Lower scores indicate worse cognitive performance. The behavioral assessment measures the frequency and severity of 11 items, which are rated from zero (almost never/absent) to four (almost always/severe). The items assess depression, anxiety, aggression, psychosis, and other behavioral abnormalities. The behavioral score ranges from 0 to 88, with higher scores indicating more severe psychiatric abnormalities. The functional domain comprises three components, namely the total functional capacity (TFC), the functional assessment scale (FAS), and the independence scale (IS). The TFC consists of five items (occupation, finances, domestic chores, activities of daily living, and care level) and ranges from 0 to 13. The FAS includes 25 yes/no questions about common daily tasks (range 0-25). The Independence Score (IS) measures the level of independence by one single score between 10 and 100. For all functional scores, lower scores indicate a worse function. See, Huntington Study Group, Unified Huntington Disease Rating Scale: reliability and consistency. Mov Disord. 1996; 11:136-142, which is incorporated by reference in its entirety.
as §1
Valbenazine was supplied as orally administered capsules containing 20 or 40 mg of valbenazine (free base equivalents as the ditosylate salt). Subjects must swallow the capsules with approximately 4 ounces of water or other liquid, with or without food.
During the dose-adjustment period, the investigator could increase a subject's dose to the next dose level if, in the investigator's opinion, the subject has tolerated the study drug at the current dose. Doses were adjusted in a blinded manner; subjects receiving placebo will undergo the dose-adjustment process but will continue to receive placebo. Dose increases were allowed at visits at the end of Weeks 2, 4, and 6. If the subject had not tolerated the current dose, the investigator could decrease the subject's dose at any time during the dose adjustment period (the 40 mg dose can be decreased to 20 mg). Doses were to be decreased 1 dose level at a time and subjects could have multiple dose decreases during the dose-adjustment period; subjects who were unable to tolerate the 20 mg dose could remain in the study but study drug dosing was discontinued.
During the maintenance period (beginning after the Week 8 visit through the end of Week 12), the subject's dose was maintained. If the subject could not tolerate the maintenance dose, the investigator could reduce the subject's dose a single time by 1 dose level (unless the subject is receiving 20 mg); if the subject could not tolerate the lower dose, he/she could remain in the study but study drug dosing was discontinued.
The primary endpoint for the study was change from baseline to maintenance in the Unified Huntington Disease Rating Scale total maximal chorea (TMC). […]

subjects with HD [4] = experiment: Phase 3 study: UHDRS functional assessment, independence scale, total functional capacity; conditions: baseline to Week 12; either treatment group
Excerpt: (§2) Exploratory endpoints included: • Wearable movement sensors (in select sites; optional participation) using MC10 Inc., BIOSTAMP® NPOINT® system • Huntington Disease Health Index • Changes from the screening period baseline to each postbaseline study visit (Weeks 2 through 12) in the TMC based on site assessments • Changes from the screening period baseline to maintenance (the average of the Week 10 and Week 12 assessments) in the TMC based on video recording central rater assessments • CGI-C response at Weeks 2 through 10 • PGI-C response at Weeks 2 through 10 • The change from baseline to Weeks 4, 8, and 10 in the Neuro-QoL Upper Extremity Function T-score. • The change from baseline to Weeks 4, 8, and 10 in the Neuro-QoL Lower Extremity Function T-score • CGI-S at Weeks 2 through 12 • PGI-S at Weeks 2 through 12 • SF-36 at Week 12 • HD-HI at Week 10 and Week 12 • EQ-5D-5L at Week 10 and Week 12 • UHDRS scores for motor, behavior, and functional capacity assessment at Weeks 2 through 12 • Other UHDRS scores including functional assessment and independence scale at Week 12 • AS at Week 12 • Change from screening period in physical activity by movement sensors at the Week 10 visit period
The functional capacity portion of the UHDRS consists of 5 items. […]

subjects with HD [5] = experiment: Phase 3 study: Anosognosia Scale; conditions: baseline to Week 12; either treatment group
Excerpt: as §2

COc1cc2c(cc1OC)[C@H]1C[C@@H](OC(=O)[C@@H](N)C(C)C)[C@H](CC(C)C)CN1CC2 [Valbenazine, (S)-2-amino-3-methyl-butyric acid (2R,3R,11bR)-3-isobutyl-9,10-dimethoxy-1,3,4,6,7,11b-hexahydro-2H-pyrido[2,1-a]isoquinolin-2-yl ester]
EQ-5D-5L health index score and distribution of scores for each dimension, differences between treatment groups (subjects with HD [1]; baseline to Weeks 10 and 12): No notable differences between treatment groups were observed | EQ-5D-5L shift toward worsening in any dimension (subjects with HD [1]; valbenazine group): index score and distribution of scores for each dimension. No shift | SAE and AE leading to discontinuation of study treatment (subjects with HD [2]; both treatment groups): comparable rates and low incidence | rates of TEAEs (subjects with HD [2]; both treatment groups): comparable rates of TEAEs in both treatment groups | tolerability (subjects with HD [2]; once-daily administration): well tolerated | somnolence (most commonly reported AE), incidence (subjects with HD [2]; valbenazine group): 15.6% | suicidal behavior or worsening of suicidal ideation (subjects with HD [2]; valbenazine treated subjects): No suicidal behavior or worsening of suicidal ideation was observed | onset of improvement of chorea symptoms (TMC by study visit) (subjects with HD [3]; FIG. 4, post-hoc analysis vs placebo): noted as early as week 2 | TMC score LS mean difference between treatment groups (valbenazine minus placebo) (subjects with HD [3]; Week 2, on-site assessments): minus placebo) were as follows: Week 2 (−1.26 [95% CI: −2.18, −0.34], | TMC score LS mean difference between treatment groups (valbenazine minus placebo) (subjects with HD [3]; Week 4, on-site assessments): nominal p = 0.0077), Week 4 (−2.05 [95% CI: −3.12, −0.98], | TMC score LS mean difference between treatment groups (valbenazine minus placebo) (subjects with HD [3]; Week 6, on-site assessments): nominal p = 0.0002), Week 6 (−1.69 [95% CI: −2.83, −0.55], nominal | TMC score LS mean difference between treatment groups (valbenazine minus placebo) (subjects with HD [3]; Week 8, on-site assessments): p = 0.0041), Week 8 (−2.29 [95% CI: −3.46, −1.13], nominal | TMC score LS mean difference between treatment groups (valbenazine minus placebo) (subjects with HD [3]; Week 10, on-site assessments): p = 0.0002); Week 10 (−3.10 [95% CI: −4.36, −1.84], nominal | TMC score LS mean difference between treatment groups (valbenazine minus placebo) (subjects with HD [3]; Week 12, on-site assessments): p < 0.0001), and Week 12 (−3.22 [95% CI: −4.53, −1.91], nominal | placebo-adjusted mean reduction in TMC score (subjects with HD [3]; baseline to maintenance, vs placebo): 3.2 units | LS mean change from screening period baseline to maintenance in TMC scores (subjects with HD [3]; central video rater assessments, valbenazine group): in TMC scores as assessed by the central video raters was −3.51 | TMC score treatment difference, screening period baseline to maintenance (subjects with HD [3]; central video rater assessments, valbenazine vs placebo): of −2.59 (95% CI: −3.76, −1.41); p < 0.0001 (nominal), and was consistent | TMC CFSPB @ Maintenance, LS Mean (subjects with HD [3]; change from screening period baseline to maintenance (average of Week 10 and Week 12), on-site assessments, once-daily valbenazine up to 80 mg, N=64): −4.6 | TMC CFSPB @ Maintenance, LS Mean, Difference (subjects with HD [3]; valbenazine vs placebo, on-site assessments): −3.16 | UHDRS functional assessment, independence, and total functional capacity scores, changes from baseline (subjects with HD [4]): No clinically meaningful changes were noted from baseline to Week | Anosognosia Scale score, changes from baseline (subjects with HD [5]): No clinically meaningful changes were noted from baseline to Week
